After the bases stand the sugars from the 5' end (letter, count) and the backbone: PS all phosphorothioate, else s phosphorothioate and o phosphodiester by linkage. Methylation of C is not given here. e = 2'-O-(2-methoxyethyl) (MOE); k = constrained ethyl (cEt); d = 2'-deoxy (DNA)

One series has as its target IRF4. Particulars: ASO, MM.1R, 0.074 µM.
“TCTATAGTGTTCCAGG (sugars kkdddddddddkdkdk, PS)”: the target mRNA inhibition was 22%.

For “TCTATAGTGTTCCAGG (sugars kkkdddddddddkeke, PS)”, the target mRNA inhibition was found to be 22%.

Still in this series, the particulars now being: ASO, MM.1R, 0.222 µM.
On to “TCTATAGTGTTCCAGG (sugars kkdddddddddkdkdk, PS)”, for which the target mRNA inhibition was 28%.

“TCTATAGTGTTCCAGG (sugars kkkdddddddddkeke, PS)”: the target mRNA inhibition is 34%.

The same series, now with this note: ASO, MM.1R, 0.666 µM.
“TCTATAGTGTTCCAGG (sugars kkdddddddddkdkdk, PS)”: the target mRNA inhibition was found to be 45%.

Turning to “TCTATAGTGTTCCAGG (sugars kkkdddddddddkeke, PS)”, the target mRNA inhibition turned out to be 56%.

The same series, now with this note: ASO, MM.1R, 1 µM.
TCCATAGAGCCAGAGC (sugars k3 d10 k3, PS): the target mRNA inhibition turned out to be 20%.

TCCCATCGAATCTGCC (sugars k3 d10 k3, PS): the target mRNA inhibition is -5%.

Turning to TCCCATGGTTACTAAT (sugars k3 d10 k3, PS), the target mRNA inhibition is -10%.

Take TCCCGACACGCGCCGC (sugars k3 d10 k3, PS): the target mRNA inhibition was -12%.

TCGAATCTGCCCAAAG (sugars k3 d10 k3, PS): the target mRNA inhibition was 23%.

Consider TCGCGCAAAGGGCAAG (sugars k3 d10 k3, PS), for which the target mRNA inhibition is -4%.

As for TCTACTGGAGTCAAGC (sugars k3 d10 k3, PS), the target mRNA inhibition turned out to be 30%.

Consider “TCTATAGTGTTCCAGG (sugars kkdddddddddkdkdk, PS)”, for which the target mRNA inhibition was 50%.

Turning to “TCTATAGTGTTCCAGG (sugars kkdddddddddkekek, PS)”, the target mRNA inhibition is 28%.

“TCTATAGTGTTCCAGG (sugars kkkdddddddddkeke, PS)”: the target mRNA inhibition was 68%.

For the sequence “TCTATAGTGTTCCAGG (sugars kkkddddddddkekek, PS)”, the target mRNA inhibition came to 13%.

Turning to TCTGAGTAGACTTCTT (sugars k3 d10 k3, PS), the target mRNA inhibition worked out at 14%.

Turning to TCTGGCTAGCAGAGGT (sugars k3 d10 k3, PS), the target mRNA inhibition came to 26%.

On to TCTTCTGGATTGCTGA (sugars k3 d10 k3, PS), for which the target mRNA inhibition came out at 20%.

Take TGAGCACTCTTACTCC (sugars k3 d10 k3, PS): the target mRNA inhibition is -6%.

On to “TGATAGCTGAGCTGAT (sugars k2 d9 e3 k2, PS)”, for which the target mRNA inhibition is -2%.

Consider “TGATAGCTGAGCTGAT (sugars kdddddddddkekeke, PS)”, for which the target mRNA inhibition stood at 17%.

For the sequence “TGATAGCTGAGCTGAT (sugars kkdddddddddekeke, PS)”, the target mRNA inhibition came out at 15%.

As for “TGATAGCTGAGCTGAT (sugars kkdddddddddkdkdk, PS)”, the target mRNA inhibition was -22%.

Take TGCAGCACCGTGGTGC (sugars k3 d10 k3, PS): the target mRNA inhibition was -1%.

Regarding TGCCATGGACAAGTTT (sugars k3 d10 k3, PS), the target mRNA inhibition is -18%.

In the case of TGCGGAGGTTCCTTGA (sugars k3 d10 k3, PS), the target mRNA inhibition came to 12%.

For the sequence TGCGGCTCCGGCGACG (sugars k3 d10 k3, PS), the target mRNA inhibition is -20%.

Staying with this series, now noted: ASO, MM.1R, 2 µM.
“TCTATAGTGTTCCAGG (sugars kkdddddddddkdkdk, PS)”: the target mRNA inhibition turned out to be 72%.

Turning to “TCTATAGTGTTCCAGG (sugars kkkdddddddddkeke, PS)”, the target mRNA inhibition came out at 81%.

The same series, now with this note: ASO, SK-MEL-28, 4 µM.
TCCACTGTTAAAGCAG (sugars k3 d10 k3, PS): the target mRNA inhibition was 55%.

TCCAGATGCAGATTCC (sugars k3 d10 k3, PS): the target mRNA inhibition was 46%.

On to TCCAGGTGGCTCAGCA (sugars k3 d10 k3, PS), for which the target mRNA inhibition was found to be 41%.

TCCATAGATCAACATG (sugars k3 d10 k3, PS): the target mRNA inhibition was found to be 45%.

With TCCCAACCCGCTTCTC (sugars k3 d10 k3, PS), the target mRNA inhibition was found to be 14%.

Turning to TCCCACGCGGGAGGCT (sugars k3 d10 k3, PS), the target mRNA inhibition turned out to be 1%.

Regarding TCCCACTGGGCTTTGT (sugars k3 d10 k3, PS), the target mRNA inhibition was 32%.

Consider TCCCAGTAGATCCTGC (sugars k3 d10 k3, PS), for which the target mRNA inhibition came to 40%.

Regarding TCCCATCCAAGAGTAG (sugars k3 d10 k3, PS), the target mRNA inhibition turned out to be 33%.

For TCCCGGAGGAAGTCCC (sugars k3 d10 k3, PS), the target mRNA inhibition was found to be 30%.

For the sequence TCCTAACCCTGAGTAT (sugars k3 d10 k3, PS), the target mRNA inhibition is 27%.

Turning to TCCTCAAAGTCATTGC (sugars k3 d10 k3, PS), the target mRNA inhibition was 32%.

Consider TCCTCAACCGCTGAAC (sugars k3 d10 k3, PS), for which the target mRNA inhibition came to 37%.

Consider TCCTGAGACAAGTGCT (sugars k3 d10 k3, PS), for which the target mRNA inhibition came to 55%.

Turning to TCCTTAATTATGCAGA (sugars k3 d10 k3, PS), the target mRNA inhibition was 44%.

Take TCCTTTAAACAGTGCC (sugars k3 d10 k3, PS): the target mRNA inhibition was 50%.

On to TCCTTTAGTGTCGCCA (sugars k3 d10 k3, PS), for which the target mRNA inhibition worked out at 76%.

Consider TCCTTTGGGTGCTTTC (sugars k3 d10 k3, PS), for which the target mRNA inhibition was found to be 32%.

Regarding TCGCAGGCAGTTGTGC (sugars k3 d10 k3, PS), the target mRNA inhibition is -20%.

For TCTAACCCTAATCCTA (sugars k3 d10 k3, PS), the target mRNA inhibition was 5%.

As to TCTAGTTTGCCAATTC (sugars k3 d10 k3, PS), the target mRNA inhibition is 62%.

TCTATAGTGTTCCAGG (sugars k3 d10 k3, PS): the target mRNA inhibition was determined as 80%.

With TCTCAGCAAAACGCAG (sugars k3 d10 k3, PS), the target mRNA inhibition worked out at 27%.

As for TCTCCCACACCAGCCC (sugars k3 d10 k3, PS), the target mRNA inhibition stood at 6%.

As for TCTCTCCAGTTTGTTG (sugars k3 d10 k3, PS), the target mRNA inhibition was 14%.

For the sequence TCTGAGTGAGCTTGCC (sugars k3 d10 k3, PS), the target mRNA inhibition is 49%.

As for TCTTACAGCAATCTTA (sugars k3 d10 k3, PS), the target mRNA inhibition was found to be 32%.

Turning to TCTTGTGGACACTTTT (sugars k3 d10 k3, PS), the target mRNA inhibition stood at 65%.

In the case of TGAAACTGAGAGTGCG (sugars k3 d10 k3, PS), the target mRNA inhibition is 19%.

TGAAATGGAGCATCCG (sugars k3 d10 k3, PS): the target mRNA inhibition worked out at 9%.

On to TGAGATAAGAAGCACT (sugars k3 d10 k3, PS), for which the target mRNA inhibition came out at 20%.

For the sequence TGAGATAGGAAGCACT (sugars k3 d10 k3, PS), the target mRNA inhibition was found to be 38%.

On to TGATAGGTATACTTAA (sugars k3 d10 k3, PS), for which the target mRNA inhibition was found to be 28%.

As for TGATATTAGAGACTGT (sugars k3 d10 k3, PS), the target mRNA inhibition was found to be 60%.

With TGCAAAATAGTCACTC (sugars k3 d10 k3, PS), the target mRNA inhibition was 48%.

On to TGCAAACGACAAGTGG (sugars k3 d10 k3, PS), for which the target mRNA inhibition came out at 21%.

Turning to TGCAAGATGACTCCAT (sugars k3 d10 k3, PS), the target mRNA inhibition came to 57%.

For the sequence TGCATGAGGGTGACAC (sugars k3 d10 k3, PS), the target mRNA inhibition was 45%.

TGCCAGAGGGCAAGAT (sugars k3 d10 k3, PS): the target mRNA inhibition was 2%.

For TGCCAGTGGTGGCCGC (sugars k3 d10 k3, PS), the target mRNA inhibition is 30%.

Consider TGCCGAGATATAAATA (sugars k3 d10 k3, PS), for which the target mRNA inhibition is 23%.

TGCCGTGTCAGGGTCG (sugars k3 d10 k3, PS): the target mRNA inhibition amounted to 11%.

Consider TGCCTGAACTGTGTAA (sugars k3 d10 k3, PS), for which the target mRNA inhibition amounted to 35%.

For TGCGAGTACCCAAGAC (sugars k3 d10 k3, PS), the target mRNA inhibition turned out to be 59%.

Values taken from the OligoGym collection.
